Data set [1] in a line: UV-Vis absorption spectra. To be noted: 20 uM in DMSO. It is filed as physicochemical. On the procedure: UV-Vis absorption spectra were recorded on a Varian Cary 50 UV-Vis Spectrophotometer (Agilent).
For data set [2] the following is noted: reported value; cited from earlier work.
The subject of data set [3] is live HeLa cells. Description: SRS imaging of live HeLa cells incubated with unmethylated probes before and after 405 nm illumination. To be noted: 20 µM, 30 minutes of labeling; 2226 cm^-1 channel after 405 nm. It is filed as cell-based. On the procedure: FIG. 7 provides exemplary results from SRS imaging of live HeLa cells incubated with 1-cyclo (1, 20 µM, 30 minutes of labeling, top) and Cyclo-Mito (7, 20 µM, 30 minutes of labeling, bottom) at the CH3 (2940 cm^-1) channel, and the expected uncaged alkyne channel (2226 cm^-1) before and after 405 nm illumination. Scale bar: 10 µm.
An integrated laser (picoEMERALD, Applied Physics and Electronics, Inc.) was used as a light source for both pump and Stokes beams. It produces 2 ps pump (tunable from 770 nm - 990 nm, bandwidth 0.5 nm, spectral bandwidth ~ 7 cm-1 ) and Stokes (1031.2 nm, spectral bandwidth 10 cm-1 ) beams with 80 MHz repetition rate. Stokes beam is modulated at 20 MHz by an internal electro-optic modulator. […] Laser powers are monitored through image acquisition by an internal power meter and power fluctuation are controlled within 5% by the laser system. […] Fluorescence images were collected using the same Olympus FV3000 confocal microscope with CW laser excitation (405, 488, 561 and 640 nm, Coherent OBIS LX laser) and standard bandpass filter sets. The correlation coefficients (Pearson’s R value) between SRS images and fluorescence images were calculated using ‘Coloc 2’ tool of ImageJ.

Data set [4] in a line: Spontaneous Raman / hyperspectral SRS spectroscopy of probes and uncaged alkynes. It is filed as physicochemical. To be noted: for alkyne Raman peak / SRS channel after uncaging: organelle probes after UV / 405 nm uncaging. The text has this:
(§1) An integrated laser (picoEMERALD, Applied Physics and Electronics, Inc.) was used as a light source for both pump and Stokes beams. It produces 2 ps pump (tunable from 770 nm - 990 nm, bandwidth 0.5 nm, spectral bandwidth ~ 7 cm-1 ) and Stokes (1031.2 nm, spectral bandwidth 10 cm-1 ) beams with 80 MHz repetition rate. Stokes beam is modulated at 20 MHz by an internal electro-optic modulator. The spatially and temporally overlapped pump and Stokes beams are introduced into an inverted multiphoton laser scanning microscopy (FV3000, Olympus), and then focused onto the sample by a 25X water objective (XLPLN25XWMP, 1.05 N.A., Olympus). Transmitted pump and Stokes beams are collected by a high N.A. condenser lens (oil immersion, 1.4 N.A., Olympus) and pass through a bandpass filter (893/209 BrightLine, 25 mm, AVR Optics) to filter out Stokes beam. A large area (10×10 mm) Si photodiode (S3590-09, Hamamatsu) is used to measure the remaining pump beam intensity. 64 V DC voltage was used on the photodiode to increase saturation threshold and reduce response time. The output current is terminated by a 50 Ω terminator and pre-filtered by an 19.2-23.6-MHz band-pass filter (BBP-21.4+, Mini-Circuits) to reduce laser and scanning noise. The signal is then demodulated by a lock-in amplifier (SR844, Stanford Research Systems) at the modulation frequency. The in-phase X output is fed back to the Olympus IO interface box (FV30-ANALOG) of the microscope. Image acquisition speed is limited by 30 µs time constant set for the lock-in amplifier. Correspondingly, we use 80 µs pixel dwell time, which gives a speed of 8.5 s frame-1 for a 320-by-320-pixel field of view. Laser powers are monitored through image acquisition by an internal power meter and power fluctuation are controlled within 5% by the laser system. 16-bit grey scale images are acquired by Fluoview software. SRS spectra were acquired by fixing the Stokes beam at 1031.2 nm and scanning the pump beam through the designated wavelength range point by point. 10 mM EdU (H2O) sample was used as a standard to give RIE of different probes. Fluorescence images were collected using the same Olympus FV3000 confocal microscope with CW laser excitation (405, 488, 561 and 640 nm, Coherent OBIS LX laser) and standard bandpass filter sets. The correlation coefficients (Pearson’s R value) between SRS images and fluorescence images were calculated using ‘Coloc 2’ tool of ImageJ.
To perform spontaneous Raman spectroscopy, spontaneous Raman spectra were acquired using an upright confocal Raman spectrometer (Horiba Raman microscope; Xplora plus). A 532 nm YAG laser is used to illuminate the sample with a power of 12 mW on sample through a 100 x, N.A. 0.9 objective (MPLANN; Olympus) with 100 µm slit and 500 µm hole. Spectro/Raman shift center was set to be 2000.04 cm-1 . With a 1200 grating, Raman shift ranges from 690.81 cm-1 to 3141.49 cm-1 was acquired to cover whole biological relevant Raman peaks. The acquired spectra were processed by the LabSpec 6 software for baseline correction.
Cyclopropenone caging has been previously adopted for photoactivation and subsequent biorthogonal labeling of fluorophores in fluorescence microscopy. […] Herein the alkyne Raman signal generation from photo-DIBO light-activation was first measured (FIG. 1A). […] Compared to 5-ethynyl-2′-deoxyuridine (EdU), the well-adopted benchmark for Raman intensity quantification, the relative Raman intensity to EdU (RIE) of the strained alkyne DIBO is only 1.8 (Table 1). […] Given this, it is reasoned that diphenylcyclopropenone (i.e. cyclopropenone-caged 1-yne, 1-cyclo, 1, FIG. 1A) should be a better photoactivatable Raman scaffold with higher Raman sensitivity after uncaging. Indeed, UV-uncaging of 1-cyclo (1), which started from a similarly weak Raman peak at 1860 cm^-1 from photo-DIBO, produced an intense sharp peak for 1-yne (2) at 2226 cm^-1 (FIG. 1B, dashed black vs solid blue spectra) with an improved RIE values to about 4

The nature of data set [5]: Photoactivation (UV-uncaging) monitored by time-series spontaneous Raman spectra. It is filed as physicochemical. To be noted: 365 nm illumination (15 mW/cm^2); increase of alkyne peak 2226 cm^-1. On the procedure:
The 365 nm UV light used to activate cyclopropenones comes from a UV handlamp (Analytik Jena UVP EL Series Lamp, UVLS-24, 4 Watt, 2 UV 254/365 nm, typically used for TLC monitoring in organic synthesis). The power of 365 nm UV of this handlamp was measured to be 15 mW/cm2 on samples.
Next, the photo-uncaging kinetics for both 1-cyclo (1) and 2-cyclo (3) were compared. […] With 365 nm lamp illumination, the characteristic peaks of cyclopropenones (~1860 cm^-1) continue to drop while the alkyne peaks (2226 cm^-1) gradually increase for both molecules (FIG. 1D). […] The progression of the UV-activation reactions could also be confirmed by the change in the corresponding absorption spectra (FIG. 6).

Data set [6] has as its system live HeLa cells. Nature of the data set: Time lapse (pulse-chase) imaging of retained signal after photoactivation. It is filed as cell-based. The conditions noted are these: after 2 hours of chasing, 0 h = 100%. On the procedure: FIG. 20 illustrates labeling signal and specificity evaluation during 2 hours of time lapse imaging in photoactivated Me-Mito-^13C (16) labeled live HeLa cells. Panel (a) is a plot showing quantification of retained signals after 1 hour and 2 hours imaging. The values of signals at 0 h were used as 100% signal reference. n = 6 independent experiments. Data shown as mean ± SEM. Panel (b) includes a series of representative time lapse imaging. The magnified images of the bottom cell (indicated by the dashed white box) are shown. Scale bar: 10 µm. The high mitochondria-labeling specificity of the mitochondria probe was confirmed for relatively long-term pulse-chase tracking applications. More than 85% of activated Me-Mito-^13C (16) signals retained in live HeLa cells after 2 hours of chasing ([…]) with well-maintained mitochondria labeling pattern (FIG. 20, panel b). In live HeLa cells labeled with Me-Mito-^13C (16), 405 nm laser was first used to pulse-activate the selected region of a single cell for 20 seconds (FIG. 5A, CH3, the white dashed box indicates the activation area). Immediately after photoactivation, SRS imaging at 2125 cm^-1 well resolved the distribution of mitochondria only from this activated subcellular region (FIG. 5A, Mito0 min, Pulse), implying high spatial selectivity. […]

A short description of data set [7]: (HP)LC-MS for assessing the stability of cyclopropenone probes in physiological condition. It is filed as physicochemical. The conditions noted are these: 10 mM cysteine (PBS), 37° C., HPLC trace. On the procedure:
The assessed probe was first dissolved in DMSO and later diluted in 10 mM cysteine (Sigma, 168149, dissolved in PBS) solution or DMEM (Corning, 35-015-CV) medium. Analytical HPLC coupled with mass spectrometry (LC-MS) was performed on Agilent 1290 infinity LC system using ZORBAX RRHD Eclipse Plus C18, 95 Å, 2.1 x 50 mm, 1.8 µm column with Agilent 6140 Series Quadrupole LCMS / LC-MS / MSD / Mass Spectrometer System. The mobile phase is water (0.1% AcOH) and acetonitrile with running method of gradient 5%-95% acetonitrile (1 ml/min, 4 min for total running time). The mass spectrometry detection region ranges from 100 to 800 AMU. The data shown in the main figures and supplementary figures are the absorption (280.8 nm) intensity traces.
It was hypothesized that this was likely because the cyclopropenone structures are susceptible to nucleophilic attack, leading to ring-opened α,β-unsaturated acids derivatives. Cysteines, glutathione, and other biological thiols are strong nucleophiles and could easily deactivate cyclopropenones. The stability of 1-cyclo (1) in 10 mM cysteine phosphate-buffered saline (PBS) at 37° C. was therefore tested, mimicking physiological conditions.

A further data set has as its system mitochondria. Nature of the data set: Live-cell photo-uncaging mitochondria imaging, SRS/fluorescence co-localization. It is filed as cell-based. The conditions noted are these: live HeLa cells.
Source text: as §1
Mitochondria imaging: Cells were incubated in 16 µM Me-Mito (12) or Me-Mito^13C (16) with complete DMEM medium for 40 minutes in the incubator. Cells were washed with PBS three times before imaging. For colocalization, 80 nM MitoTracker™ Deep Red (Invitrogen, M22426) was used to stain cells for 25 minutes. […]

Setting [8] is: SRS vs Mitotracker deep red, Fl/2225 cm^-1 channel.

SMILES strings stand for the structures.

On to `O=c1c(-c2ccccc2)c1-c1ccccc1` [1-cyclo (1), diphenylcyclopropenone], for which, in data set [1], the Abs came out at 302 nm and the εabs came to 28600 M⁻¹ cm⁻¹. The quantum yield in data set [2] is on record as 0.78. In addition, the “uncaging signals in labeled live cells” value in the data set with live HeLa cells [3] is “did not produce any observable uncaging signals”. Moreover, the “RIE (relative Raman intensity to EdU)” value in data set [4] (10 mM EdU (H2O) as standard) was found to be 0.37. Moreover, the “Raman Peak” value in data set [4] (cell silent region, model systems) was determined as 1860 cm⁻¹. The same compound yielded an uncaging kinetics k in data set [5] of 0.0044 s⁻¹.

With `Cc1cc(C)c(-[13c]2c(=O)[13c]2-c2c(C)cc(OCCC[P+](c3ccccc3)(c3ccccc3)c3ccccc3)cc2C)c(C)c1.[Br-]` [Me-Mito-^13C (16)], in the data set with live HeLa cells [6], the activated signals retained result was “More than 85%”. In addition, in data set [4], the “alkyne Raman peak / SRS channel after uncaging” value turned out to be 2125 cm⁻¹.

Take `Cc1cc(C)c(-c2c(-c3c(C)cc(OCCC[P+](c4ccccc4)(c4ccccc4)c4ccccc4)cc3C)c2=O)c(C)c1` [Me-Mito (12)]: in data set [7], the “time stable to cysteine” value is recorded as “over 48 hours”. Moreover, in the data set with mitochondria (setting [8]), the “correlation coefficient (Pearson's R value), set 1” value is listed as 0.85; the “correlation coefficient (Pearson's R value), set 2” value was determined as 0.82; the “correlation coefficient (Pearson's R value), set 3” value was 0.88. Besides, the “SRS imaging at the alkyne channel after photoactivation” value in the data set on mitochondria (two minutes of 405 nm laser illumination, 2205 cm^-1) is listed as “bright mitochondria pattern”. The “alkyne Raman peak / SRS channel after uncaging” value in data set [4] amounted to 2205 cm⁻¹.

(Values after patent publication US20230280275A1, “PHOTOACTIVATABLE VIBRATIONAL PROBES AND USES THEREOF” (California Institute of Technology, priority 2021, published 2023).)
